Test results from PMC11557573, “Aspergillus flavipes L-methionine γ-lyase-β-cyclodextrin conjugates with improved stability, catalytic efficiency and anticancer activity” (Scientific Reports, 2024).

Tested on: T1, A. flavipes L-methionine γ-lyase (MGL), free MGL
T1 construct: native intracellular enzyme purified from A. flavipes mycelium (acetone, Sephadex G100, DEAE-Sepharose); 48 kDa subunit; PLP enzyme; free (not cyclodextrin-conjugated)
Experiment: released thiol/ammonia assay (DTNB), Lineweaver-Burk
Assay type: biochemical, Aspergillus flavipes
Settings: free enzyme; standard assay Tris-HCl pH 7.8, 10 μM PLP, 37 °C
Description: released thiol/ammonia assay (DTNB), Lineweaver-Burk on A. flavipes L-methionine γ-lyase (MGL), free MGL

| Km [mM] | SMILES |
| --- | --- |
| 12.2 | NC(CCS)C(=O)O (racemic) [DL-homocysteine] |
| 7.2 | CSCC[C@H](N)C(=O)O [L-methionine] |

| SMILES | Km [mM] |
| --- | --- |
| N[C@@H](CS)C(=O)O [L-cysteine] | 9.5 |
